These results are taken from paper PMC6891772 (Marine Drugs, 2019).

As a reminder, the IC50 is the point on the concentration scale where inhibition reaches its midpoint. The low end stands for higher potency, the high end for lower potency.

This assay addresses T1, arylamine-N-acetyltransferase (TBNAT) (Mycobacterium tuberculosis, UniProt P9WJI5).
T1 construct: gene nat
T1 sequence (P9WJI5 1-283): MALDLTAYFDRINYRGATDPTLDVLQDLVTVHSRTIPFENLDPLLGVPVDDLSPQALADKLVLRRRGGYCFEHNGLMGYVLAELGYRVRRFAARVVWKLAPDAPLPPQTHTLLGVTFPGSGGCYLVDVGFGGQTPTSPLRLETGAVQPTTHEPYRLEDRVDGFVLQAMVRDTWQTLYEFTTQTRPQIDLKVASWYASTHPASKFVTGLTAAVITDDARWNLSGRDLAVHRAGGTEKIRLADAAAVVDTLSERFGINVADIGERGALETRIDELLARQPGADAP
Put plainly: biochemical.

Structures are written as SMILES.

In the case of `CC(=O)O[C@H]1CC(C)(C)C(=C=C/C(C)=C/C=C/C(C)=C/C=C/C=C(C)/C=C/C=C(\C)C(=O)C[C@@]23O[C@]2(C)C[C@@H](O)CC3(C)C)[C@](C)(O)C1` [fucoxanthin], the IC50 came to 4.8 ± 0.4 µM.

`NNC(=O)c1ccncc1` [isoniazid]: the IC50 worked out at 5.9 ± 0.2 µM.
